Each structure is given as a SMILES string.

The record followed here is US5962284A, “Acrylamidase enzymes” (Ciba Specialty Chemicals Water Treatments Limited, priority 1997, dated 1999).

In assay [1] the test system is acrylamidase produced by Rhodococcus species NCIMB 40755. Conditions: read-out: Km for acrylamide; pH 4.0, 30° C., cell suspension. The source says: (§1) For measurement of Km (see below) the same conditions can be used, except that the acrylamide concentration is of course varied. One unit (U) of amidase activity hydrolyses 1 micromole of acrylamido per minute under the above conditions. The specific activity is the amount of units of activity present per dry gram of cell material. The relative activity is the % activity relative to activity at ph 7.
(§2) In this specification, Km is Km for acrylamide measured at pH 4.0.

The test system of assay [2] is acrylamidase produced by Rhodococcus erythropolis NCIMB 40889. Conditions: read-out: Km for acrylamide; pH 4.0, 30° C., cell suspension.
Description: as §1, §2

Assay [3] shares this test system. The assay is described as follows: Adipic acid activity assay (amidase activity at pH 4 with added adipic acid). Type of assay: biochemical. Particulars: pH 4, 50 mM acrylamide, 30° C.
Description: as §1
In this specification, comparison of acrylamidase activity in the presence of adipic acid and in the absence of adipic acid is measured by the following adipic acid activity assay:
To an assay mixture at pH 4 as described for measurement of activity at pH 4 and pH 7 is added adipic acid to give the concentrations required. Cell suspension is then added to the assay mixture. The amidase activity of each suspension is then measured. The relative activity is % activity relative to activity in the absence of adipic acid.

As to `C=CC(N)=O` [acrylamide], the Michaelis constant (Km) (commonly the concentration of substrate that gives half-maximal velocity) stood at 6 mM in assay [1] and 11.6 mM in assay [2].

As to `O=C(O)CCCCC(=O)O` [Adipic Acid, adipic acid], the “Relative Activity (%) relative to activity in the absence of adipic acid” value in assay [3] (5 mM adipic acid) worked out at 95%; in assay [3] (10 mM adipic acid), 69%; in assay [3] (15 mM adipic acid) it was 38%; in assay [3] (22.5 mM adipic acid) it was 30%; in assay [3] (25 mM adipic acid), 29%; in assay [3] (50 mM adipic acid) it was 12%.
